This note sets out measurements from PMC9000499, “New Triazolyl N^N Bidentate Rh(III), Ir(III), Ru(II) and Os(II) Complexes: Synthesis and Characterization, Probing Possible Relations between Cytotoxicity with Transfer Hydrogenation Efficacy and Interaction with Model Biomolecules” (Molecules, 2022).

For one assay, the system named is Lymphoma cells (MT4). Nature of the assay: MTS in vitro cytotoxicity assay, MT4. The assay is classed as cell-based. The following applies: 96 h exposure, mean ± SD n = 6. The text has this:
(§1) The absorbance is directly proportional to cell viability.

Assay [1] is described as follows: MTS in vitro cytotoxicity assay, HEK293. The format is cell-based. The following applies: MTS assay, 96 h exposure, mean ± SD n = 6.
Source text: as §1

A further assay deals with lung cancer cells (A549). Kind of assay: MTS in vitro cytotoxicity assay, A549. The settings on record: mean ± SD n = 6. The assay is classed as cell-based.
Source text: as §1

In assay [2] the test system is all the tested cell lines (Hela, HEK293, BHK21, MT4, A549). The settings on record: summary over all tested cell lines, MTS assay. The procedure:
An MTS (3-(4,5-dimethylthiazol-2-yl)-5-(3-carboxymethoxy-phenyl)-2-(4-sulfophenyl)-2H-tetrazolium) in vitro cytotoxicity assay was conducted to determine change in cell viability using a colour change. The MTS compound (yellow) is metabolised by viable cells to form a dark purple coloured compound, visible through UV-Vis spectroscopy at 490 nm. The absorbance is directly proportional to cell viability. Samples were tested across three plates in duplicate (n = 6), and the average value was reported.
HeLa (cervical cancer cells), Hek293 (kidney cancer cells), BHK21 (normal kidney cells), MT4 (lymphoma cells) and A549 (lung cancer cells) were grown using standard tissue culture techniques. The cells (1 × 10^5 cells/mL) were incubated in 96-well plates at 37 °C overnight, with the subsequent addition of the supplied compounds, at concentrations (100 µg/mL, 50.0 µg/mL, 25.0 µg/mL, 12.5 µg/mL, 6.25 µg/mL, 3.125 µg/mL and 0 µg/mL). The cells were left to incubate for four days, after which MTS (5 µL) was added to the cells. The absorbance values were measured at 490 nm after 1 h, 2 h and 4 h incubation periods, averaged, and the viability curves were drawn up.

Assay [3] relates to normal kidney cells (BHK21). Nature of the assay: MTS in vitro cytotoxicity assay, BHK21. The settings on record: mean ± SD n = 6; for EC50: Mesocricetus auratus, BHK-21, 96 h exposure. The assay is classed as cell-based.
Source text: as §1

For assay [4], the system named is cervical cancer cells (Hela). Nature of the assay: MTS in vitro cytotoxicity assay, Hela. The assay is classed as cell-based. The following applies: 96 h exposure, mean ± SD n = 6; for EC50: Homo sapiens, HeLa.
Source text: as §1

Assay [5] deals with kidney cancer cells (HEK293). Kind of assay: MTS in vitro cytotoxicity assay, HEK293. The assay is classed as cell-based. The settings on record: EC50 against BHK21 divided by EC50 against HEK293.
Source text: as §1

[6] abbreviates: Homo sapiens, A549, 96 h exposure.

For the compound `Cc1ccc(C(C)C)cc1.F[B-](F)(F)F.[Cl-].[Os+2].c1ccc(Cn2cc(-c3ccccn3)nn2)nc1` [Complex C9, [Chlorido(2-((4-(pyridine-2-yl)-(3-κN)-1,2,3-trizol-1-yl)methyl)-(2′-κN)-pyridine)(η^6-p-cymene)osmium(II)] tetrafluoroborate], in the assay on Lymphoma cells (MT4), the “EC50 MT4” value is given as “N.R”. The values for the EC50 (in assay [1]; in the assay on lung cancer cells (A549) (96 h exposure)) were more than 400 µM and more than 500 µM, respectively. The “EC50 / activity against all the tested cell lines” value in assay [2] was “not active”. In assay [3] (96 h exposure), the “EC50 BHK21” value is “N.R”. For the same compound, the “EC50 Hela” value in assay [4] was “N.R”.
With `c1ccc(Cn2cc(-c3ccccn3)nn2)cc1` [Complex L1, 2-(1-Benzyl-1H-1,2,3-triazol-4-yl)pyridine], the EC50 was more than 1300 µM with Lymphoma cells (MT4); more than 1300 µM in assay [1] (Homo sapiens, HEK293); more than 1300 µM in the assay on lung cancer cells (A549) (setting [6]); more than 1300 µM in assay [3]; 168 ± 31 µM in assay [4]. Besides, the “SI (selectivity index)” value in assay [5] is listed as not above 1.
Turning to `c1ccc(Cn2cc(-c3ccccn3)nn2)nc1` [Complex L2, 2-((4-(Pyridin-2-yl)-1H-1,2,3-triazol-1-yl)methyl)pyridine], in the assay with Lymphoma cells (MT4), the “EC50 MT4” value is on record as “N.R”. Also, the EC50 in assay [1] (Homo sapiens, HEK293) is more than 1300 µM; in the assay with lung cancer cells (A549) (setting [6]), more than 1300 µM; in assay [3] it was more than 1300 µM; in assay [4], 1070 ± 134 µM. Also, the “SI (selectivity index)” value in assay [5] is not above 1.
